# Patent publication US20230167073A1 (Teijin Pharma Limited, priority 2020, published 2023)
# Target: T1, Human TRPC6 (Homo sapiens, UniProt Q9Y210)
# T1 construct: expressed in transfected cells
# T1 sequence (Q9Y210 1-931): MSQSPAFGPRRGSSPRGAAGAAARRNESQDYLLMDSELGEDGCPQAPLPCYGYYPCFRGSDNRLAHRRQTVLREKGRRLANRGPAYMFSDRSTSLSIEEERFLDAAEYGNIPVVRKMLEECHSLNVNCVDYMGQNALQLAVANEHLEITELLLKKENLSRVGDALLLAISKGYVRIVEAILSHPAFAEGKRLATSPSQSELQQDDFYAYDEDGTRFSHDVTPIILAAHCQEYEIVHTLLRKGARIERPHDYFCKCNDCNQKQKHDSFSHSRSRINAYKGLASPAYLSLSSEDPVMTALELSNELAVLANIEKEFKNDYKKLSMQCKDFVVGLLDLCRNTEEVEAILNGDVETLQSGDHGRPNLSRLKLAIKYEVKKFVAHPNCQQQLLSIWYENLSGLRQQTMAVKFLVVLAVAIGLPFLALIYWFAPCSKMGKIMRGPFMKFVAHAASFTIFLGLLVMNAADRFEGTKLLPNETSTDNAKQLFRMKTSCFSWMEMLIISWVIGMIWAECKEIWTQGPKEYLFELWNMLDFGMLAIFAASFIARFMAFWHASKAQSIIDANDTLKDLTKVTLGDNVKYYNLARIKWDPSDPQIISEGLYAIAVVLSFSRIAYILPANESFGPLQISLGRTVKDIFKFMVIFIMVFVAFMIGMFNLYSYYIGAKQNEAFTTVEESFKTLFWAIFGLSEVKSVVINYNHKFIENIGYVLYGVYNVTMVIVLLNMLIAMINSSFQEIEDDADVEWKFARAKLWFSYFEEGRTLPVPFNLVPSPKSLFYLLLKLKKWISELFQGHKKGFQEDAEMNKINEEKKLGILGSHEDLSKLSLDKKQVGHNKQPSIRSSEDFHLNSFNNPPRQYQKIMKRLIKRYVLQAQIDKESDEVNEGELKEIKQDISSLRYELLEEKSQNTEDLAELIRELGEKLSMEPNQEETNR
# Experiment: Evaluation of TRPC6 channel inhibitory activity (1), FLIPR Calcium 5 Assay Kit, OAG stimulation (Compound Nos. 1-1293)
# Format: cell-based
# Conditions: Human TRPC6 stably-expressing cells, OAG 30 μM, FLIPR Calcium 5 Assay Kit; read-out: Inhibitory activity (pIC50 class) (converted)
# Method in brief: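 Readout is pIC50 from four-parameter logistic fitting of inhibition of the OAG-evoked (30 μM final) fluorescence calcium signal. Human TRPC6 stable cells are dye-loaded with probenecid, and compound is applied 20 min ahead of agonist.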
row,IC50 [nM],SMILES
1,10 to 1000,"Cn1nc(N2CCOCC2)cc1Oc1cc(F)ccc1-c1ccc(CN)cn1 [compound 976, [6-[4-fluoro-2-(2-methyl-5-morpholin-4-ylpyrazo1-3-yl)oxyphenyl]pyridin-3-yl]methanamine]"
2,< 10,"Cn1nc(-c2ccccn2)cc1Oc1cc(F)ccc1-c1ncc(CCN)cn1 [compound 977, 2-[2-[4-fluoro-2-(2-methyl-5-pyridin-2-ylpyrazol-3-yl)oxyphenyl]pyrimidin-5-yl]ethanamine]"
3,< 10,"Cc1cc(Oc2cc(F)ccc2-c2ncc(CCN)cn2)cc(N2CCOCC2)n1 [compound 978, 2-[2-[4-fluoro-2-(2-methyl-6-morpholin-4-ylpyridin-4-yl)oxyphenyl]pyrimidin-5-yl]ethanamine]"
4,< 10,"Cn1nc(N2CCCC2)cc1Oc1cc(F)ccc1-c1ncc(CCN)cn1 [compound 979, 2-[2-[4-fluoro-2-(2-methyl-5-pyrrolidin-1-ylpyrazol-3-yl)oxyphenyl]pyrimidin-5-yl]ethanamine]"
5,< 10,"Cn1nc(N2CCCC2)cc1Oc1cc(F)ccc1-c1ccc(CCN)cn1 [compound 980, 2-[6-[4-fluoro-2-(2-methyl-5-pyrrolidin-1-ylpyrazol-3-yl)oxyphenyl]pyridin-3-yl]ethanamine]"
6,10 to 1000,"CC(C)n1cc(Oc2cc(F)ccc2-c2ncc(CCN)cn2)cn1 [compound 981, 2-[2-[4-fluoro-2-(1-propan-2-ylpyrazol-4-yl)oxyphenyl]pyrimidin-5-yl]ethanamine]"
7,10 to 1000,"CC(C)Cn1cc(Oc2cc(F)ccc2-c2ncc(CCN)cn2)cn1 [compound 982, 2-[2-[4-fluoro-2-[1-(2-methylpropyl)pyrazol-4-yl]oxyphenyl]pyrimidin-5-yl]ethanamine]"
8,< 10,"Cc1nn(C(C)C)cc1Oc1cc(F)ccc1-c1ncc(CCN)cn1 [compound 983, 2-[2-[4-fluoro-2-(3-methyl-1-propan-2-ylpyrazol-4-yl)oxyphenyl]pyrimidin-5-yl]ethanamine]"
9,10 to 1000,"Cc1c(Oc2cc(F)ccc2-c2ncc(CCN)cn2)cnn1C(C)C [compound 984, 2-[2-[4-fluoro-2-(5-methyl-1-propan-2-ylpyrazol-4-yl)oxyphenyl]pyrimidin-5-yl]ethanamine]"
10,< 10,"Cc1nn(CC(C)(C)C)cc1Oc1cc(F)ccc1-c1ncc(CCN)cn1 [compound 985, 2-[2-[2-[1-(2,2-dimethylpropyl)-3-methylpyrazol-4-yl]oxy-4-fluorophenyl]pyrimidin-5-yl]ethanamine]"
11,10 to 1000,"Cc1c(Oc2cc(F)ccc2-c2ncc(CCN)cn2)cnn1CC(C)(C)C [compound 986, 2-[2-[2-[1-(2,2-dimethylpropyl)-5-methylpyrazol-4-yl]oxy-4-fluorophenyl]pyrimidin-5-yl]ethanamine]"
12,< 10,"CN(CC(F)F)c1cc(Oc2cc(F)ccc2-c2ncc(CCN)cn2)n(C)n1 [compound 987, 5-[2-[5-(2-aminoethyl)pyrimidin-2-yl]-5-fluorophenoxy]-N-(2,2-difluoroethyl)-N,1-dimethylpyrazole-3-amine]"
13,< 10,"CN(CC(F)F)c1cc(Oc2cc(F)ccc2-c2ccc(CCN)cn2)n(C)n1 [compound 988, 5-[2-[5-(2-aminoethyl)pyridin-2-yl]-5-fluorophenoxy]-N-(2,2-difluoroethyl)-N,1-dimethylpyrazole-3-amine]"
14,< 10,"CCN(CC(F)F)c1cc(Oc2cc(F)ccc2-c2ncc(CCN)cn2)n(C)n1 [compound 989, 5-[2-[5-(2-aminoethyl)pyrimidin-2-yl]-5-fluorophenoxy]-N-(2,2-difluoroethyl)-N-ethyl-1-methylpyrazole-3-amine]"
15,< 10,"CCN(CC(F)F)c1cc(Oc2cc(F)ccc2-c2ccc(CCN)cn2)n(C)n1 [compound 990, 5-[2-[5-(2-aminoethyl)pyridin-2-yl]-5-fluorophenoxy]-N-(2,2-difluoroethyl)-N-ethyl-1-methylpyrazole-3-amine]"
16,< 10,"CCN(CC)c1cc(Oc2cc(F)ccc2-c2ccc(CCN)cn2)n(C)n1 [compound 991, 5-[2-[5-(2-aminoethyl)pyridin-2-yl]-5-fluorophenoxy]-N,N-diethyl-1-methylpyrazole-3-amine]"
17,< 10,"CCN(CC)c1cc(Oc2cc(F)ccc2-c2ncc(CN)cn2)n(C)n1 [compound 992, 5-[2-[5-(aminomethyl)pyrimidin-2-yl]-5-fluorophenoxy]-N,N-diethyl-1-methylpyrazole-3-amine]"

row,IC50 [nM],SMILES
1,10 to 1000,"CN(CC(F)F)c1cc(Oc2cc(F)ccc2-c2ncc(CN)cn2)n(C)n1 [compound 993, 5-[2-[5-(aminomethyl)pyrimidin-2-yl]-5-fluorophenoxy]-N-(2,2-difluoroethyl)-N,1-dimethylpyrazole-3-amine]"
2,10 to 1000,"CCN(CC(F)F)c1cc(Oc2cc(F)ccc2-c2ncc(CN)cn2)n(C)n1 [compound 994, 5-[2-[5-(aminomethyl)pyrimidin-2-yl]-5-fluorophenoxy]-N-(2,2-difluoroethyl)-N-ethyl-1 methylpyrazole-3-amine]"
3,10 to 1000,"Cn1nc(N2CCCC2)cc1Oc1cc(F)ccc1-c1ncc(CN)cn1 [compound 995, [2-[4-fluoro-2-(2-methyl-5-pyrrolidin-1-ylpyrazol-3-yl)oxyphenyl]pyrimidin-5-yl]methanamine]"
4,< 10,"Cn1nc(N2CCCC2)cc1Oc1cc(F)ccc1-c1ccc(CN)cn1 [compound 996, [6-[4-fluoro-2-(2-methyl-5-pyrrolidin-1-ylpyrazol-3-yl)oxyphenyl]pyridin-3-yl]methanamine]"
5,10 to 1000,"CN(C)c1cc(Oc2cc(F)ccc2-c2ncc(CN)cn2)n(C)n1 [compound 997, 5-[2-[5-(aminomethyl)pyrimidin-2-yl]-5-fluorophenoxy]-N,N,1 trimethylpyrazole-3-amine]"
6,10 to 1000,"CN(C)c1cc(Oc2cc(F)ccc2-c2ccc(CN)cn2)n(C)n1 [compound 998, 5-[2-[5-(aminomethyl)pyridin-2-yl]-5-fluorophenoxy]-N,N,1-trimethylpyrazole-3-amine]"
7,10 to 1000,"CN(C)c1cc(Oc2cc(F)ccc2-c2ncc(CCN)cn2)n(C)n1 [compound 999, 5-[2-[5-(2-aminoethyl)pyrimidin-2-yl]-5-fluorophenoxy]-N,N,1-trimethylpyrazole-3-amine]"
8,< 10,"CN(C)c1cc(Oc2cc(F)ccc2-c2ccc(CCN)cn2)n(C)n1 [compound 1000, 5-[2-[5-(2-aminoethyl)pyridin-2-yl]-5-fluorophenoxy]-N,N,1-trimethylpyrazole-3-amine]"
9,< 10,"Cc1nc(Oc2cc(F)ccc2-c2ccc(CCN)cn2)cc(N2CCOCC2)n1 [compound 1001, 2-[6-[4-fluoro-2-(2-methyl-6-morpholin-4-ylpyrimidin-4-yl)oxyphenyl]pyridin-3-yl]ethanamine]"
10,> 1000,"Cc1nc(Oc2cc(F)ccc2-c2ncc(CN)cn2)cc(N2CCOCC2)n1 [compound 1002, [2-[4-fluoro-2-(2-methyl-6-morpholin-4-ylpyrimidin-4-yl)oxyphenyl]pyrimidin-5-yl]methanamine]"
11,10 to 1000,"Cc1nc(Oc2cc(F)ccc2-c2ccc(CN)cn2)cc(N2CCOCC2)n1 [compound 1003, [6-[4-fluoro-2-(2-methyl-6-morpholin-4-ylpyrimidin-4-yl)oxyphenyl]pyridin-3-yl]methanamine]"
12,10 to 1000,"NCCc1cnc(-c2ccc(F)cc2Oc2cnn(-c3ccccn3)c2)nc1 [compound 1004, 2-[2-[4-fluoro-2-(1-pyridin-2-ylpyrazol-4-yl)oxyphenyl]pyrimidin-5-yl]ethanamine]"
13,> 1000,"NCCc1cnc(-c2ccc(F)cc2Oc2cnn(CC(F)F)c2)nc1 [compound 1005, 2-[2-[2-[1-(2,2-difluoroethyl)pyrazol-4-yl]oxy-4-fluorophenyl]pyrimidin-5-yl]ethanamine]"
14,10 to 1000,"NCCc1ccc(-c2ccc(F)cc2Oc2cnnc(N3CCOCC3)c2)nc1 [compound 1006, 2-[6-[4-fluoro-2-(6-morpholin-4-ylpyridazin-4-yl)oxyphenyl]pyridin-3-yl]ethanamine]"
15,10 to 1000,"Cn1nc(C2CCOCC2)cc1Oc1cc(F)ccc1-c1ncc(CN)cn1 [compound 1007, [2-[4-fluoro-2-[2-methyl-5-(oxan-4-yl)pyrazol-3-yl]oxyphenyl]pyrimidin-5-yl]methanamine]"
16,10 to 1000,"Cn1nc(C2CCOCC2)cc1Oc1cc(F)ccc1-c1ccc(CN)cn1 [compound 1008, [6-[4-fluoro-2-[2-methyl-5-(oxan-4-yl)pyrazol-3-yl]oxyphenyl]pyridin-3-yl]methanamine]"
